The values that follow are results of earlier work, collected in US20250356483A1, “Quality Control Of In-Vitro Analysis Sample Output” (Sanofi, priority 2022, published 2025).

Structures are written as SMILES.

In the data set the test system is liver cells. The note with it: CPZ@60 micro moles.

Consider `CN(C)CCCN1c2ccccc2Sc2ccc(Cl)cc21` [CPZ, Chlorpromazine], for which the “known toxic effect of reference compound (positive control)” value was “toxic to liver cells and triggers cholestasis”.
